According to US20190358242A1, “COMPOSITIONS, KITS, AND METHODS TO INDUCE ACQUIRED CYTORESISTANCE USING STRESS PROTEIN INDUCERS” (FRED HUTCHINSON CANCER RESEARCH CENTER, priority 2017, published 2019):

What was measured:
HO-1 protein = assay: Renal cortical HO-1 protein (ELISA) after FeS, SnPP, B12; assay type: in vivo, CD-1 mice; conditions: for HO-1 protein increases (FIG. 21): 4 hrs and 18 hrs after IV injection
Procedure: Effects of FeS, SnPP, and B12 on renal cortical induction of heme oxygenase 1(HO-1). The following experiments assessed the effects of FeS, SnPP, and B12 on the possible induction of the cytoprotective protein HO-1. To this end, mice were injected with each of these agents, as noted above. Either 4 or 18 hrs later, they were anesthetized and the kidneys were removed through a midline abdominal incision. The renal cortices were dissected on ice and then extracted for protein and mRNA. The samples were then assayed for HO-1 protein by ELISA, and HO-1 mRNA by RT-PCR, factored by GAPDH levels. Five normal mice provided control values.

maleate model of AKI = assay: Maleate model of AKI (800 mg/Kg), FeS/SnPP and FeS/B12; assay type: in vivo, CD-1 mice; conditions: IV 18 hrs before 800 mg/Kg maleate; 18 hrs post maleate; 1 mg FeS, 1 μmole SnPP or B12
Description: Effects of Fe sucrose (FeS)/tin protoporphyrin (SnPP) on AKI severity. Maleate model of AKI. When injected into rodents, maleate undergoes relatively selective proximal tubule cell uptake via organic anion transporters. Once intracellular accumulation occurs, maleate is a preferred substrate for succinyl-CoA:3-oxoacid CoA transferase. […] Ample levels of CoA are essential for fatty acid “activation”, allowing for their subsequent metabolism through the Krebs cycle, yielding ATP. In the absence of this process, proximal tubule ATP depletion and cell injury result. Additionally, maleate conjugates the sulfhydryl group of glutathione (GSH), culminating in GSH depletion and potential oxidant tubular stress.
The following experiment tested whether FeS, SnPP or combined FeS+SnPP can mitigate this form of acute kidney injury (AKI). Twenty seven mice were subjected to 200 μL IV tail injections of one of the following: 1) vehicle (phosphate buffered saline, PBS; n, 10); 2) 1 mg FeS (American Regent (Shirley, N.Y.; n, 3); 3) 1 μmole SnPP (Frontier Scientific, Logan, Utah; n 7), or FeS+SnPP, n, 7). […] The severity of kidney injury was assessed by determining plasma blood urea nitrogen (BUN) and plasma creatinine (PCr) concentrations.
Maleate model of AKI. […] The severity of AKI was determined 18 hrs post maleate injection by terminal BUN and PCr assessments.

ferritin heavy chain = assay: Kidney ferritin heavy chain expression (Western blotting); assay type: in vivo, mice; conditions: 18 hrs following 1 umole SnPP, 1 mg FeS or combined
Procedure: FIG. 32. Ferritin heavy chain expression (as determined by Western blotting) in kidneys 18 hrs following 1 umole tin protoporphyrin (SnPP), 1 mg Fe sucrose (FeS) or combined SnPP+FeS treatment.

Substance | HO-1 protein increases (FIG. 21) (HO-1 protein) | Severity of maleate-induced AKI (BUN/PCr), in words (maleate model of AKI) | Renal cortical HO-1 protein levels (HO-1 protein; 18 hr time point) | Ferritin heavy chain protein levels in kidney (ferritin heavy chain)
cyanocobalamin [B12] | marked HO-1 protein increases within 4 hrs and persists for 18 hrs | – | – | –
iron sucrose [FeS] | marked HO-1 protein increases within 4 hrs and persists for 18 hrs | Neither SnPP alone nor FeS alone significantly altered the severity of renal injury | remained elevated at the 18 hr time point, particularly in the case of FeS administration | strong ferritin inducer
